ChEMBL document CHEMBL1138095, “From ligand to complexes: inhibition of human immunodeficiency virus type 1 integrase by beta-diketo acid metal complexes” (J Med Chem, 2006)
pIC50: −log10 of the molar value.

Columns and labels:
[1] = biological target: T1, Human immunodeficiency virus type 1 integrase (Human immunodeficiency virus 1, UniProt Q7ZJM1); test: Inhibition of HIV1 integrase 3' processing activity
[2] = biological target: T1, Human immunodeficiency virus type 1 integrase; test: Inhibition of HIV1 integrase strand transfer activity

T1 sequence (Q7ZJM1 whole entry): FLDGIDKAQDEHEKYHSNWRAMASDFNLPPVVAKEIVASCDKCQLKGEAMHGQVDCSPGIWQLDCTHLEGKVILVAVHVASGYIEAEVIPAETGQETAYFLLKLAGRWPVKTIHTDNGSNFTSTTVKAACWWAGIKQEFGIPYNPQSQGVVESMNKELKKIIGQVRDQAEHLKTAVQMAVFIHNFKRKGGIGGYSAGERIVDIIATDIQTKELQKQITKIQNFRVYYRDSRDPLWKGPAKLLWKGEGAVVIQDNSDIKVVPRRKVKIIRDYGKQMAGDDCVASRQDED

| pIC50 [1] | pIC50 [2] | Structure (SMILES) |
| --- | --- | --- |
| 3.73 | 4.32 | COC(=O)C(=O)/C=C(\O)c1cccn1Cc1ccc(F)cc1 |
| < 3.48 | < 3.48 | COC(=O)C(=O)/C=C(\O)c1ccccc1 |
